For the experiment, the target named is T1, Protein deacetylase HDAC6 (Homo sapiens) (UniProt Q9UBN7).
T1 sequence (whole entry): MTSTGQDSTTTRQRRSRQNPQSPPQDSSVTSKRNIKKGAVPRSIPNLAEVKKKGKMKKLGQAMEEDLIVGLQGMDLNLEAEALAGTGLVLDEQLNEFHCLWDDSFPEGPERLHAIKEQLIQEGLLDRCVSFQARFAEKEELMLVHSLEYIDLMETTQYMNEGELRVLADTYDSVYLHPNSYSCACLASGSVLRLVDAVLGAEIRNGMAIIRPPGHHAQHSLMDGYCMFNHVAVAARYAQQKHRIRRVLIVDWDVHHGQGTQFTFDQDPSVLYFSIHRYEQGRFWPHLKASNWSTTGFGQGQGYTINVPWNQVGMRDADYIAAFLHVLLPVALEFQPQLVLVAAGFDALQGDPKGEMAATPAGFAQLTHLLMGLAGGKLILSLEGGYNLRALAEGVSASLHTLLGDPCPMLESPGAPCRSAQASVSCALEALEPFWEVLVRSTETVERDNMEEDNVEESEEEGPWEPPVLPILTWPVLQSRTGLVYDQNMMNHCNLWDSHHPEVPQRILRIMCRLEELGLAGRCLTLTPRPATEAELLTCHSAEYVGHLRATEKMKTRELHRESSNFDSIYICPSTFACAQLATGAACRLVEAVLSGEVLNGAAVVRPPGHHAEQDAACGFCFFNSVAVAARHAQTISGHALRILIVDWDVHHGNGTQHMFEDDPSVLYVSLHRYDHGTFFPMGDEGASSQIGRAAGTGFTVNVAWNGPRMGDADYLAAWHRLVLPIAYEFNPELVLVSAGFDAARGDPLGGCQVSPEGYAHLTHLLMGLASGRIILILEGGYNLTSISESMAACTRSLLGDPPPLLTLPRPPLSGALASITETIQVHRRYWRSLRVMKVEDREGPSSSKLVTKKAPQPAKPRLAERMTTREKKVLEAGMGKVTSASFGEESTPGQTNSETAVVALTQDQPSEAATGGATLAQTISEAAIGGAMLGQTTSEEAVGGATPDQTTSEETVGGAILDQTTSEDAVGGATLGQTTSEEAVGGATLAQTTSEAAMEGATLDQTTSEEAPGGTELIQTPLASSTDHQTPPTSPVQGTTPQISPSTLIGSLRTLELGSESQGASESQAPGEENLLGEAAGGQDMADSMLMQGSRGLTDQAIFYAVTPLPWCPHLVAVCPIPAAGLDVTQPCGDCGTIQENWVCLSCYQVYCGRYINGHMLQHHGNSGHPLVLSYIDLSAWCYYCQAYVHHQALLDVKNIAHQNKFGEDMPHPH
The experiment can be described thus: Inhibition of full length HDAC6 (unknown origin) extracted from Sf9 insect cells at 10 uM preincubated for 60 mins followed by substrate addition and measured after 20 mins by luminescence based HDAC-GloTM I/II assay relative to control. Conditions: time 80.0 min. The format is cell-free.
Regarding `O=C1c2cc(-c3nnc(C(F)F)o3)ccc2CN1[C@H](C1CCC(F)(F)CC1)[C@@H](O)c1ccc(F)nc1` (racemic), the inhibition worked out at 100%. For `O=C1c2cc(-c3nnc(C(F)F)o3)ccc2CN1[C@H](c1ccccn1)[C@@H](O)c1ccccn1` the value was 101%. For `O=C1c2cc(-c3nnc(C(F)F)o3)ccc2CN1[C@H](c1ccc(F)c(F)c1)[C@@H](O)c1ccccn1` the value was 99%; for `O=C1c2cc(-c3nnc(C(F)F)o3)ccc2CN1[C@H](c1ccc(F)cc1)[C@@H](O)C1CCOCC1` (racemic), 99%.

As to `O=C1c2cc(-c3nnc(C(F)F)o3)ccc2CN1[C@H](c1cnccn1)[C@@H](O)c1cccc(Cl)c1`, the inhibition was 100%.

As to `O=C1c2cc(-c3nnc(C(F)F)o3)ccc2CN1[C@H](C1CC1)[C@@H](O)c1cccc(F)c1`, the inhibition came to 100%.

With `O=C1c2cc(-c3nnc(C(F)F)o3)ccc2CN1[C@H](c1ccccn1)[C@@H](O)c1ccc(C(F)(F)F)cn1`, the inhibition was 99%. For `O=C1c2cc(-c3nnc(C(F)F)o3)ccc2CN1[C@H](C1CC1)[C@@H](O)c1ncccn1` the value was 96%. For `O=C1c2cc(-c3nnc(C(F)F)o3)ccc2CN1[C@H](c1cccc(F)c1)[C@@H](O)c1ccccn1` (racemic) the value was 100%. For `O=C1c2cc(-c3nnc(C(F)F)o3)ccc2CN1[C@H](C1CC1)[C@@H](O)c1ccc(F)cn1`, the inhibition was 100%. As to `O=C1c2cc(-c3nnc(C(F)F)o3)ccc2CN1[C@H](C1CC1)[C@@H](O)c1ccccn1`, the inhibition was 100%. In the case of `O=C1c2cc(-c3nnc(C(F)F)o3)ccc2CN1[C@H](c1cccnn1)[C@@H](O)c1cccc(Cl)c1` it was 101%; in that of `O=C1c2cc(-c3nnc(C(F)F)o3)ccc2CN1[C@H](c1ccc(F)cc1)[C@@H](O)c1ccc(F)nc1`, 99%.

On to `O=C1c2cc(-c3nnc(C(F)F)o3)ccc2CN1[C@@H](c1ccccn1)[C@H](O)c1ccccn1`, for which the inhibition was determined as 100%.

For the origin of these results see ChEMBL document CHEMBL6153156, “Potential of Histone Deacetylase 6 Inhibitors as a Treatment of Neurodegenerative Diseases” (ACS Med Chem Lett, 2025).
